Key:
Format in all cases: physicochemical
Solubility test in water = settings: for solubility: thermodynamic from solid, in purified water, saturated state
Description: The salts obtained in Example 1, Comparative examples 1, 2 and 6, and the compound of formula A were tested for solubility in water, and the test method was as follows:
Test method: the samples to be tested were taken in a certain amount, gradually added to the purified water respectively, and continuously shaked until the samples reached the saturated state, the weighed amount of the samples to be tested and the used amount of the solvent were recorded, the concentrations at which the samples were dissolved were calculated, and the test results were shown in the following table: […]

[1] = Stability test, accelerated test at 40° C.±2° C./75% RH±5% RH; settings: for Content (%) / Maximum single impurity (%) / Moisture (%) / Total impurity (%): 40° C.±2° C./75% RH±5% RH
Description: The sodium salt of the compound of formula A obtained in Example 1 (packaging conditions: low-density polyethylene bag+polyester/aluminum/polyethylene composite bag for pharmaceutical packaging) was subjected to an accelerated test at 40° C.±2° C./75% RH±5% RH, and the results were as follows: […]

[2] = Hygroscopicity / stable existence of the obtained salt solid; settings: concluding statement
Description: With reference to the preparation method of Example 1, the preparation of alkaline amino acid salts: lysine salt, arginine salt, and proline salt of the compound of formula A was carried out using methanol as the reaction solvent.

O=C([O-])Cc1nn(Cc2nc3cc(C(F)(F)F)ccc3s2)c(=O)c2nccnc12.[Na+] [Example 1]
solubility (Solubility test in water): 10000 µg/mL | solubility in water (in words) (Solubility test in water): good solubility | Content (%) ([1]; 0 Month): 100.8% | Maximum single impurity (%) ([1]; 0 Month): 0.03% | Moisture (%) ([1]; 0 Month): 0.6% | Total impurity (%) ([1]; 0 Month): 0.40% | Content (%) ([1]; 1 Month): 99.6% | Maximum single impurity (%) ([1]; 1 Month): 0.03% | Moisture (%) ([1]; 1 Month): 0.7% | Total impurity (%) ([1]; 1 Month): 0.45% | Content (%) ([1]; 2 Month): 99.9% | Maximum single impurity (%) ([1]; 2 Month): 0.03% | Moisture (%) ([1]; 2 Month): 0.7% | Total impurity (%) ([1]; 2 Month): 0.37% | Content (%) ([1]; 3 Month): 99.6% | Maximum single impurity (%) ([1]; 3 Month): 0.03% | Moisture (%) ([1]; 3 Month): 0.8% | Total impurity (%) ([1]; 3 Month): 0.42% | Content (%) ([1]; 6 Month): 100.9% | Maximum single impurity (%) ([1]; 6 Month): 0.03% | Moisture (%) ([1]; 6 Month): 0.8% | Total impurity (%) ([1]; 6 Month): 0.54% | quality stability (in words) ([1]; concluding statement): stable quality | hygroscopicity (in words) [2]: low hygroscopicity

O=C(O)Cc1nn(Cc2nc3cc(C(F)(F)F)ccc3s2)c(=O)c2nccnc12 [Compound of formula A, reference compound]
solubility (Solubility test in water): 35 µg/mL | solubility in water (in words) (Solubility test in water): insoluble in water

Reference: US12195471B2, “Salt of aldose reductase inhibitor, and preparation method and application thereof” (CSPC ZHONGQI PHARMACEUTICAL TECHNOLOGY (SHIJIAZHUANG) CO., …, priority 2019, dated 2025)
